Where two headings read alike, the source gives them in different places.

The test system of series [1] is U87. Kind of series: Cell proliferation assay U87 (Example 6). It counts as cell-based. To be noted: cells counted on the sixth day. The protocol:
(§1) In-vitro assays were performed to assess the cytotoxic impact of AA analogues on breast cancer cell lines (MB-468, MB-453, and T47D), lymphoma cell lines (Raji and OCI-LY10), and glioblastoma multiforme cell line (U87). The three breast cancer cell lines represent three subtypes of breast cancer: triple-negative (MB-468), Her2-positive (MB-453), and hormone receptor positive (T47D).
(§2) The IC50 values obtained for each compound represents the concentration of the tested compound that is needed to decrease the cancer cell count by 50%. Cancer cells were seeded in triplicate at 50,000 cells per well of a 24-well plate in 0.5 ml medium. […] Cells were harvested and counted on the sixth day using a Beckman Coulter counter.

The test system of series [2] is Raji. Kind of series: Cell proliferation assay Raji (Example 6). It counts as cell-based. To be noted: cells counted on the sixth day. The protocol:
as §1, §2

Series [3] has as its system MB-468 (triple-negative breast cancer cells). Kind of series: Cytotoxicity, cell count, MB-468 (Example 4). To be noted: read-out: Cytotoxicity (IC50, μM) MB-468.
Experimental: (§3) Raji cells and MB-468 cells were purchased from American Tissue Culture (Manassas, Va.). […] Cells were harvested and counted on the third day in a Coulter Particle Counter (Beckman-Coulter Corp.: Brea, Calif.). IC50 values were calculated using GraphPad Prism 5 (GraphPad Software Inc., La Jolla, Calif.).
Series [4] relates to Raji B cells (Burkitt's lymphoma cells). Kind of series: Cytotoxicity, cell count, Raji (Example 4). The following applies: read-out: Cytotoxicity (IC50, μM) Raji.
Experimental: as §3
Series [5] in a line: CNS pharmacokinetic analysis in rats (microdialysis, CE-UV). The following applies: male, Sprague-Dawley, rat, in vivo, iv, 2.5 mg/kg. The protocol:
Male Sprague-Dawley rats (Harlan, Indianapolis, Ind., USA) were used in this CNS pharmacokinetic study on Agelastatin A and its three analogues (CAA, CEAA, and DCEAA). Six rats were used for each drug. The rats were approximately 2 months old and weighed 300±25 g at the beginning of the study. All rats were housed in a temperature-controlled room (23±2° C.) with a 12:12 light dark cycle (lights off at 6:00 pm). Purina 5001 Rodent Chow and tap water were available ad libitum at all times.
Rats were anesthetized with gasiform isoflurane (1% isoflurane in a mixture of 20% oxygen and 80% nitrogen gas) and immobilized in a stereotaxic frame (KOPF Instruments, Tujunga, Calif.). Anesthesia was maintained during the entire procedure. The guide cannula (CMA Microdialysis Inc., Acton, Mass.) was stereotactically implanted into the lateral ventricle (AP −0.9, L 1.6, V 3.4, relative to bregma and skull), and then secured to the skull by screws and dental cement. Following surgery, each rat was housed individually with food and water ad libitum for 3 days for recovery from cannulation surgery. Microdialysis experiments were carried out on conscious, freely moving rats. On the day of the experiment, the stylet in the guide cannula was replaced with the microdialysis probe (CMA/11 with 4 mm membrane, CMA Microdialysis Inc., Acton, Mass.) and a vascular microdialysis probe (CMA/20 with 4 mm membrane, CMA Microdialysis Inc, Acton, Mass.)) was implanted into a jugular vein. The probes had inlet tubes connected to syringes to deliver artificial cerebrospinal fluid (146 mM NaCl, 1.2 mM CaCl2, 3 mM KCl, 1 mM MgCl2, 1.9 mM Na2HPO4, 0.1 mM NaH2PO4, pH 7.4) into the ventricle and Dulbecco's phosphate-buffered saline (D-PBS) into the blood at 0.5 μl/min flow rate. […]
The drug concentration in the microdialysate was measured by CE-UV (Agilent 3D CE). […] The absorbance from the drug was detected with UV at 280 nm. […]
Two-way repeated measures ANOVA followed by Tukey's test was used. […] CNS penetration is determined as the ratio of CSF and blood area under the curve (AUC).

The term IC50 denotes the concentration that inhibits the measured activity by half. Consider `CN1C(=O)N[C@H]2[C@@H]3NC(=O)c4ccc(Br)n4[C@@H]3C[C@]21O` [AA, agelastatin A, reference compound], for which the IC50 was 2.8 µM in series [1], 0.137 µM in series [2], 2.8 µM in series [3] (cells counted on the third day) and 0.14 µM in series [4] (cells counted on the third day).

In the case of `CN1C(=O)N[C@H]2[C@@H]3NC(=O)c4ccc(Cl)n4[C@@H]3C[C@]21O` [CAA, chloroagelastatin A], in series [5], the Kp was 0.16. For the same compound, the IC50 in series [1] (Homo sapiens, U-87 MG) was determined as 0.0966 µM; in series [2] (Homo sapiens, Raji), 0.181 µM; in series [3], 0.08 µM; in series [4] (Homo sapiens, Raji), 0.18 µM.

As for `CCN1C(=O)N[C@H]2[C@@H]3NC(=O)c4ccc(Cl)n4[C@@H]3C[C@]21O` [CEAA, chloroethylagelastatin A], the Kp in series [5] was 0.27. Also, the IC50 in series [1] (Homo sapiens, U-87 MG) was 0.109 µM; in series [2] (Homo sapiens, Raji) it was 0.296 µM; in series [3], 0.28 µM; in series [4] (Homo sapiens, Raji) it was 0.3 µM.

In turn, `CCN1C(=O)N[C@H]2[C@@H]3NC(=O)c4cc(Cl)c(Cl)n4[C@@H]3C[C@]21O` [DCEAA, dichloroethylagelastatin A] came in with a Kp in series [5] of 0.307. Further, the IC50 was found to be 0.256 µM in series [1] (Homo sapiens, U-87 MG); 0.619 µM in series [2] (Homo sapiens, Raji); 0.44 µM in series [3]; 0.62 µM in series [4] (Homo sapiens, Raji).
